Laboratory results as given in ChEMBL document CHEMBL5036306 (J Med Chem, 2021).
Activity calls are given as the source filed them. The rule behind the calls is not given here.

Tests used:
Homo sapiens [1] = species on record: Homo sapiens; test: Selectivity ratio of IC50 for recombinant HDAC9 (unknown origin) to IC50 for recombinant HDAC6 (unknown origin)
N9 [2] = test: Immunomodulatory activity in LPS-induced mouse N9 microglial cells assessed as increase in TGF-beta2 expression at 0.1 to 5 uM incubated for 24 hrs by Western blot analysis; assay type: functional; settings: dose 0.1-5 µM
Homo sapiens [3] = species on record: Homo sapiens; test: Selectivity ratio of IC50 for recombinant HDAC2 (unknown origin) to IC50 for recombinant HDAC6 (unknown origin)
Homo sapiens [4] = species on record: Homo sapiens; test: Selectivity ratio of IC50 for recombinant HDAC7 (unknown origin) to IC50 for recombinant HDAC6 (unknown origin)
Homo sapiens [5] = species on record: Homo sapiens; test: Selectivity ratio of IC50 for recombinant HDAC1 (unknown origin) to IC50 for recombinant HDAC6 (unknown origin)
Histone deacetylase 7 = biological target: T1, Histone deacetylase 7 (Homo sapiens, UniProt Q8WUI4); test: Inhibition of recombinant HDAC7 (unknown origin) using Boc-Lys(trifluoroacetyl)-AMC as substrate pre-incubated for 1 hr followed by substrate addition and measured after 2 hrs by fluorescence based assay
T1 sequence (Q8WUI4 whole entry): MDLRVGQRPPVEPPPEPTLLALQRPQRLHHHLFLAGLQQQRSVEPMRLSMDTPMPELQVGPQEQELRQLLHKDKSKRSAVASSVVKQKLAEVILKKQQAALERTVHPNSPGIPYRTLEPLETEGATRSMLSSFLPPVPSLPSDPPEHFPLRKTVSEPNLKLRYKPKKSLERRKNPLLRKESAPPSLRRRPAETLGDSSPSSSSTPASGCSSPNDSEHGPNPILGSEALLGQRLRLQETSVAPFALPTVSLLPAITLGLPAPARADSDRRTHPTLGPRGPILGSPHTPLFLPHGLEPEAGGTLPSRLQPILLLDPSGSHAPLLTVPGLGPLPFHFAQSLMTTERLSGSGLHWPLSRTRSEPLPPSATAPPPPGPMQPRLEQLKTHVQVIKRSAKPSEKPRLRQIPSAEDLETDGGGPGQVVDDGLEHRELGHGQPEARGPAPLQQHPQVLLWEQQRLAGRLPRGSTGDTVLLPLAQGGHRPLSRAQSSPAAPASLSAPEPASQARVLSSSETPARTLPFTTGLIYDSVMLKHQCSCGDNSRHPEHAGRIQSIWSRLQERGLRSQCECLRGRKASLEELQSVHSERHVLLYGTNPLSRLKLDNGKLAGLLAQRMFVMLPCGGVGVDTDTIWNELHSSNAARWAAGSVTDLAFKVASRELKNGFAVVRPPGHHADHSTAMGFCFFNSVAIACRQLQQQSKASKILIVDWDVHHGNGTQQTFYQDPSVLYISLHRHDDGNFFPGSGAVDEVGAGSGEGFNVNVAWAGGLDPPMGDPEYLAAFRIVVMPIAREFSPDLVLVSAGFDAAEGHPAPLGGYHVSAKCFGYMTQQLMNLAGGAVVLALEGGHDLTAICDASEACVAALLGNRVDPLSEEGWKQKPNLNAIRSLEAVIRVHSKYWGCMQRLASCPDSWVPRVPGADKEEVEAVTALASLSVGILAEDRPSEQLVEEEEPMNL

Histone deacetylase 8 = biological target: T2, Histone deacetylase 8 (Homo sapiens, UniProt Q9BY41); test: Inhibition of recombinant HDAC8 (unknown origin) using Boc-Lys(trifluoroacetyl)-AMC as substrate pre-incubated for 1 hr followed by substrate addition and measured after 2 hrs by fluorescence based assay
T2 sequence (Q9BY41 whole entry): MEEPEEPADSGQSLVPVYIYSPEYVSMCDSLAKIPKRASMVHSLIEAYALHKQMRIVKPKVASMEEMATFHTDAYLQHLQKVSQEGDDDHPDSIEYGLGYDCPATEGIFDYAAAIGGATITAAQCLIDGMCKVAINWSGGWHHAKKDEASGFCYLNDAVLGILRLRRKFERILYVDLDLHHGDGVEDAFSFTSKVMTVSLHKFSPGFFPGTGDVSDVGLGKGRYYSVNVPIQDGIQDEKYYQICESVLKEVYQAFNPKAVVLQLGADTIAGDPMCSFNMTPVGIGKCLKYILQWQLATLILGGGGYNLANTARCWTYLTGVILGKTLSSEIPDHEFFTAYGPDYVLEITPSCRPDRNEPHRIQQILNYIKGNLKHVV

[6] = Metal chelating activity assessed as compound-Cu2+ complex formation at 10 to 200 uM incubated for 2 mins followed by pyrocatechol violet addition and further incubated for 10 mins by microplate reader based assay; settings: dose 10-200 µM, time 12.0 min
Histone deacetylase 2 = Histone deacetylase 2 (Homo sapiens, UniProt Q92769); test: Inhibition of recombinant HDAC2 (unknown origin) using Boc-Lys(Ac)-AMC as substrate pre-incubated for 1 hr followed by substrate addition and measured after 2 hrs by fluorescence based assay
Homo sapiens [7] = species on record: Homo sapiens; test: Selectivity ratio of IC50 for recombinant HDAC3 (unknown origin) to IC50 for recombinant HDAC6 (unknown origin)
[8] = Antioxidant activity of compound assessed as trolox equivalent of AAPH radical scavenging activity at 2 to 4 uM preincubated for 15 mins followed by AAPH addition and measured every 2 mins for 90 mins by ORAC-fluorescein assay; assay type: functional; settings: dose 2-4 µM, time 105.0 min
Histone deacetylase 3 = Histone deacetylase 3 (Homo sapiens, UniProt O15379); test: Inhibition of recombinant HDAC3 (unknown origin) using Boc-Lys(acetyl)-AMC as substrate preincubated for 1 hr followed by substrate addition and measured after 2 hrs by fluorescence based assay
[9] = Antioxidant activity assessed as DPPH radical scavenging activity incubated for 30 mins under dark condition by microplate reader based assay; assay type: functional
[10] = Metal chelating activity compound-Zn2+ complex formation at 10 to 200 uM preincubated for 2 mins followed by di-thizone addition by microplate reader based assay; settings: dose 10-200 µM
[11] = Neurotoxicity in mouse HT-22 cells assessed as cell survival at 10 uM incubated for 48 hrs by MTT assay; assay type: cell-based; settings: ht-22, 48 h, 10 µM
Histone deacetylase 4 = Histone deacetylase 4 (Homo sapiens, UniProt P56524); test: Inhibition of recombinant HDAC4 (unknown origin) using Boc-Lys(trifluoroacetyl)-AMC as substrate pre-incubated for 1 hr followed by substrate addition and measured after 2 hrs by fluorescence based assay
Homo sapiens [12] = species on record: Homo sapiens; test: Selectivity ratio of IC50 for recombinant HDAC8 (unknown origin) to IC50 for recombinant HDAC6 (unknown origin)
N9 [13] = test: Immunomodulatory activity in LPS-induced mouse N9 microglial cells assessed as increase in TREM2 expression at 0.1 to 5 uM incubated for 24 hrs by Western blot analysis; assay type: functional; settings: dose 0.1-5 µM

Chain of Histone deacetylase 4 (P56524 whole entry): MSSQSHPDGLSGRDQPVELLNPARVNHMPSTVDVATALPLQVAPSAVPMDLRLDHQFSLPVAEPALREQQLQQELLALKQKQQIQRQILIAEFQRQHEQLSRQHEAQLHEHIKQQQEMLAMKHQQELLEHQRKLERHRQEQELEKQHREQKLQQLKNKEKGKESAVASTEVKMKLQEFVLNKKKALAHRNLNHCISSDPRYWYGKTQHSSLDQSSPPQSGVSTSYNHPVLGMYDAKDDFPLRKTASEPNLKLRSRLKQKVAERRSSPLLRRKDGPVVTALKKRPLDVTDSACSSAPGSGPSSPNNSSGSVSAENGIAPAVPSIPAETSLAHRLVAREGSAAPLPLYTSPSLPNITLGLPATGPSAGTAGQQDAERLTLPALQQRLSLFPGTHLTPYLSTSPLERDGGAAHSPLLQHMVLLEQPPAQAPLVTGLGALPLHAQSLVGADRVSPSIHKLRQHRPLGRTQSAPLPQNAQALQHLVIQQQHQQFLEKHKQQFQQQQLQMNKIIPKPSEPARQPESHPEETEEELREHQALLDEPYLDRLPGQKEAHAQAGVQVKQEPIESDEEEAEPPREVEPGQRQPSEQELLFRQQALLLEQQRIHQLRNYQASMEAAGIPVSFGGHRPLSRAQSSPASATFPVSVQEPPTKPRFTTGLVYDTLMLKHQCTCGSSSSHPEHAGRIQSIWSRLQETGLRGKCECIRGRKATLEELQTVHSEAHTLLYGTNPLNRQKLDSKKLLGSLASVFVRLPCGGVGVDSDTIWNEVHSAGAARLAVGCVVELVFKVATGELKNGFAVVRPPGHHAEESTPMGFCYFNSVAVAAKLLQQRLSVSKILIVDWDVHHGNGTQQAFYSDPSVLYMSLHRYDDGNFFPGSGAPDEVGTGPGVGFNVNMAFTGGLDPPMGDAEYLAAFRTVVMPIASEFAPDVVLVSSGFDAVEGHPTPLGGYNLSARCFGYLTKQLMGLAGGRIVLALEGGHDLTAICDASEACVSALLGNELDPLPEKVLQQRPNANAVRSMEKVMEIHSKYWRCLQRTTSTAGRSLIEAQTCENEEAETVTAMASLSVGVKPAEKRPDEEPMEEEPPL
Chain of Histone deacetylase 3 (O15379 whole entry): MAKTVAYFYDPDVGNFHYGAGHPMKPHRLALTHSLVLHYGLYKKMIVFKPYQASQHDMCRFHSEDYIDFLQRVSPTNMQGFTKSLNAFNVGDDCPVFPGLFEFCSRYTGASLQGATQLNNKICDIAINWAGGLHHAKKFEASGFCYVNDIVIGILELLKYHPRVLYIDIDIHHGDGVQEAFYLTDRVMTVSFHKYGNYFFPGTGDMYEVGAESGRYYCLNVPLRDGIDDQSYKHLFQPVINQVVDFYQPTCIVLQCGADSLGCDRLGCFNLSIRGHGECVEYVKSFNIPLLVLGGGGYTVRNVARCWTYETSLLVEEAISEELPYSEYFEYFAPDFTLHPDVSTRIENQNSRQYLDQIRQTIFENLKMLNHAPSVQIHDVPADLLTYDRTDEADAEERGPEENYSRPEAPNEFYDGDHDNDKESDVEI
Chain of Histone deacetylase 2 (Q92769 whole entry): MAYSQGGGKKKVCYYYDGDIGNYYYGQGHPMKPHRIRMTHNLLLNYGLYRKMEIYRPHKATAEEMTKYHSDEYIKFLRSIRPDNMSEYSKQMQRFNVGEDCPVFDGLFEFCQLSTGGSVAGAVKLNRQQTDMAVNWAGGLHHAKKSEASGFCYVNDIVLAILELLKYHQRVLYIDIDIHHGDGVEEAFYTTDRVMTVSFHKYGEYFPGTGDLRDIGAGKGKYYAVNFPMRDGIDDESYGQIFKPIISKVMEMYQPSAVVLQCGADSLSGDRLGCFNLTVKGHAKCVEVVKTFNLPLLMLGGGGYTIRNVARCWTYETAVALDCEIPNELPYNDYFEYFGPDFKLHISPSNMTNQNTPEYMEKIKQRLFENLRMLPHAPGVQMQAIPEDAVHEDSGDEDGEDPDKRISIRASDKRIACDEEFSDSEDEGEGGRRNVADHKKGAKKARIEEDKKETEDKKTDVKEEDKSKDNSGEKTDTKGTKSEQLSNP

Ratio IC50 (Homo sapiens [1])	Ratio IC50 (Homo sapiens [3])	Ratio IC50 (Homo sapiens [4])	Ratio IC50 (Homo sapiens [5])	IC50 (Histone deacetylase 7)	IC50 (Histone deacetylase 8)	Activity [6]	IC50 (Histone deacetylase 2)	Ratio IC50 (Homo sapiens [7])	IC50 (Histone deacetylase 3)	EC50 [9]	Activity [10]	IC50 (Histone deacetylase 4; read-out: IC50)	Ratio IC50 (Homo sapiens [12])	IC50 (Histone deacetylase 4; read-out: pIC50 (converted))	Compound	Activity (N9 [2])	ORAC antioxidant capacity (Trolox equivalents) [8]	Activity [11]	Activity (N9 [13])
> 326	93	> 326	25	> 10 µM	3.59 µM	Active	2.85 µM	53	1.61 µM	10.8 µM	Active	> 10 µM	117	–	COc1ccc2[nH]cc(CCN(Cc3ccc(C(=O)NO)cc3)C(=O)/C=C/c3ccc(O)c(OC)c3)c2c1	Active	2.1	Non-Toxic	Active
32	30	148	23	1.65 µM	0.838 µM	Active	0.336 µM	57	0.641 µM	56.3 µM	Active	3.43 µM	75	3.39 µM	COc1ccc2c(c1)c(CCNC(C)=O)cn2Cc1ccc(C(=O)NO)cc1	inactive	1.6	Toxic	inactive
